Laboratory results published in patent US20150050371A1, “Extract Formulations of Rhodamnia Cinerea And Uses Thereof” (BIOTROPICS MALAYSIA BERHAD, priority 2012, published 2015).
Marks after values point to notes of the source that are not given here.

Tested on: normal male Wistar rats
Test: Acute Starch Tolerance Test (STT), glycemia after oral wheat starch
Format: in vivo, rat
Conditions: 5 mg/kg oral
Experimental: An acute Starch Tolerance Test (STT) was performed by the administration by oral gavage of a 7.5% purified wheat starch solution at 1.5 g/kg of body weight to normal male Wistar rats. The effect of a concomitantly administered hot water extract formulation from Rhodamnia cinerea leaves (BTP-00167-14; ref. example 1.2) on the glycemic index was measured at different doses orally administered (50 and 200 mg/kg of body weight). The extract formulation BTP-00167-14 was administered by oral route concomitantly with wheat starch solutions. Glycemia was measured before and 15, 30, 60, 90, and 120 min after mixture administration. The positive control group received acarbose at 5 mg/kg of body weight together with the starch. The actual volume administered to each rat was calculated and adjusted based on the most recent body weight of each animal. STT onset was between 12:00 p.m. (noon) and 1:00 p.m. on animals fasted overnight. Blood samples (one drop) were collected via the tail vein for glucose determination using a hand-held glucometer before and 15, 30, 60, 90, and 120 min after starch administration. Seven-week old rats weighing around 135 g were used for the experiment. One day before the test, rats were randomly assigned to the different experimental groups. Delta glycemia values were calculated by subtraction of the pre-STT glycemia values (Time 0). Values represent average (i.e. mean) values.

Structure (SMILES): C[C@H]1O[C@H](O[C@H]2[C@H](O)[C@@H](O)[C@@H](O[C@H]3[C@H](O)[C@@H](O)C(O)O[C@@H]3CO)O[C@@H]2CO)[C@H](O)[C@@H](O)[C@@H]1N[C@H]1C=C(CO)[C@@H](O)[C@H](O)[C@H]1O (stereo partly drawn) [Acrabose, acarbose]
- Glycemia 15 min (15 min after starch): 72.4** mg/dL
- Glycemia 30 min (30 min after starch): 83.7** mg/dL
- Glycemia 60 min (60 min after starch): 71.7** mg/dL
- Glycemia 90 min (90 min after starch): 66.0** mg/dL
- Glycemia 120 min (120 min after starch): 61.9** mg/dL
- Glycemia 0 min (before administration): 55.0 mg/dL
